Measurements: US20160120877A1, “PHARMACEUTICAL COMPOSITIONS FOR SUSTAINED DELIVERY OF BENZODIAZEPINE ANTAGONISTS” (priority 2010, published 2016)

Experiments:
[1] = Dialysis diffusion: effect of dialysate volume; assay type: physicochemical; details: 0.25 g of 3% solution in NMP
Method: Dissolution apparatus: Vankel VK 7000 (Agilent Technologies Australia)
Dialysis bags: dialysis tubing cellulose membrane from Sigma-Aldrich Australia—average flat width 25 mm, average diameter 16 mm (when full), retains >90% of cytocrome C (M.W. 12.400) in solution over a 10 hrs period.
(§1) Dialysis tubing cellulose membrane was cut into approximately 8 cm lengths, washed with hot water for 3 hours. Tubing was then treated with 0.3% (w/v) solution of sodium sulfide at 80° C. for 1 minute, washed with hot water (60° C.) for 2 minutes and followed by acidification with 0.2% sulfuric acid. Tubing was then rinsed with hot water to remove the acid. Test formulations were added, the tubing closed with nylon closures and placed in the dialysate. At various time periods, the dialysate was sampled and the flumazenil released measured by HPLC assay.
Chromatography column: C18-250 mm×4.6 mm×5 μm (Sigma Aldrich Australia)
Mobile phase: H2O pH 2:methanol:tetrahydrofuran (80:13:7)
Injection volume: 10 μl and 100 μl
Experiments were conducted to check the influence of the volume of the dialysis medium (dialysate) on diffusion rate.
A=800 ml of phosphate buffer pH 4.0
B=600 ml of phosphate buffer pH 4.0
0.25 g of 3% flumazenil solution in N-Methyl-2-Pyrrolidinone (NMP)

methamphetamine cravings = details: clinical trials, along with hydroxyzine and gabapentin; cited from earlier work
[2] = Dialysis diffusion: effect of concentration and sample size (same quantity of flumazenil); assay type: physicochemical
Method: as §1
Experiments were conducted to test the effect of different concentrations and different sample sizes (but same quantity of flumazenil) on diffusion rate.
As described in 1.1 with 600 ml of phosphate buffer pH 4.0 as dialysate.
A=0.25 g of a 1.5% flumazenil solution in NMP
B=0.125 g of a 3% flumazenil solution in NMP
C=0.083 g of a 4.5% flumazenil solution in NMP

CCOC(=O)c1ncn2c1CN(C)C(=O)c1cc(F)ccc1-2 [flumazenil, ethyl 8-fluoro-5,6-dihydro-5-methyl-6-oxo-4H-imidazo[1,5-a](1,4)benzodiazepine-3-carboxylate]
% flumazenil released ([1]; A1 (800 ml dialysate pH 4.0), 1 h): 57.6%
% flumazenil released ([1]; A1 (800 ml dialysate pH 4.0), 2 h): 73.1%
% flumazenil released ([1]; A1 (800 ml dialysate pH 4.0), 4 h): 94.5%
% flumazenil released ([1]; A1 (800 ml dialysate pH 4.0), 6 h): 100.9%
% flumazenil released ([1]; A1 (800 ml dialysate pH 4.0), 24 h): 100.7%
% flumazenil released ([1]; A2 (800 ml dialysate pH 4.0), 1 h): 50.3%
% flumazenil released ([1]; A2 (800 ml dialysate pH 4.0), 2 h): 66.0%
% flumazenil released ([1]; A2 (800 ml dialysate pH 4.0), 4 h): 88.6%
% flumazenil released ([1]; A2 (800 ml dialysate pH 4.0), 6 h): 98.9%
% flumazenil released ([1]; A2 (800 ml dialysate pH 4.0), 24 h): 101.7%
% flumazenil released ([1]; B1 (600 ml dialysate pH 4.0), 1 h): 52.2%
% flumazenil released ([1]; B1 (600 ml dialysate pH 4.0), 2 h): 69.2%
% flumazenil released ([1]; B1 (600 ml dialysate pH 4.0), 4 h): 92.7%
% flumazenil released ([1]; B1 (600 ml dialysate pH 4.0), 6 h): 99.2%
% flumazenil released ([1]; B1 (600 ml dialysate pH 4.0), 24 h): 100.64%
% flumazenil released ([1]; B2 (600 ml dialysate pH 4.0), 1 h): 50.5%
% flumazenil released ([1]; B2 (600 ml dialysate pH 4.0), 2 h): 66.5%
% flumazenil released ([1]; B2 (600 ml dialysate pH 4.0), 4 h): 89.2%
% flumazenil released ([1]; B2 (600 ml dialysate pH 4.0), 6 h): 98.0%
% flumazenil released ([1]; B2 (600 ml dialysate pH 4.0), 24 h): 99.2%
time to reach equilibrium ([1]; dialysate A (800 ml)): around 6 hours
time to reach equilibrium ([1]; dialysate B (600 ml)): around 6 hours
methamphetamine cravings (methamphetamine cravings): substantially reduce methamphetamine cravings
% flumazenil released ([2]; sample A1 (0.25 g of 1.5% solution in NMP), 1 h): 91.0%
% flumazenil released ([2]; sample A1 (0.25 g of 1.5% solution in NMP), 2 h): 100.3%
% flumazenil released ([2]; sample A1 (0.25 g of 1.5% solution in NMP), 3 h): 101.0%
% flumazenil released ([2]; sample A1 (0.25 g of 1.5% solution in NMP), 4 h): 100.9%
% flumazenil released ([2]; sample A1 (0.25 g of 1.5% solution in NMP), 5 h): 101.0%
% flumazenil released ([2]; sample A1 (0.25 g of 1.5% solution in NMP), 6 h): 100.8%
% flumazenil released ([2]; sample A2 (0.25 g of 1.5% solution in NMP), 1 h): 93.2%
% flumazenil released ([2]; sample A2 (0.25 g of 1.5% solution in NMP), 2 h): 100.7%
% flumazenil released ([2]; sample A2 (0.25 g of 1.5% solution in NMP), 3 h): 100.9%
% flumazenil released ([2]; sample A2 (0.25 g of 1.5% solution in NMP), 4 h): 101.0%
% flumazenil released ([2]; sample A2 (0.25 g of 1.5% solution in NMP), 5 h): 100.6%
% flumazenil released ([2]; sample A2 (0.25 g of 1.5% solution in NMP), 6 h): 100.7%
precipitation in bags during the dialysis ([2]; sample A (0.25 g of 1.5% solution in NMP)): no precipitation observed
% flumazenil released ([2]; sample B1 (0.125 g of 3% solution in NMP), 1 h): 92.3%
% flumazenil released ([2]; sample B1 (0.125 g of 3% solution in NMP), 2 h): 99.0%
% flumazenil released ([2]; sample B1 (0.125 g of 3% solution in NMP), 3 h): 100.4%
% flumazenil released ([2]; sample B1 (0.125 g of 3% solution in NMP), 4 h): 101.1%
% flumazenil released ([2]; sample B1 (0.125 g of 3% solution in NMP), 5 h): 100.9%
% flumazenil released ([2]; sample B1 (0.125 g of 3% solution in NMP), 6 h): 101.1%
% flumazenil released ([2]; sample B2 (0.125 g of 3% solution in NMP), 1 h): 80.6%
% flumazenil released ([2]; sample B2 (0.125 g of 3% solution in NMP), 2 h): 92.4%
% flumazenil released ([2]; sample B2 (0.125 g of 3% solution in NMP), 3 h): 97.3%
% flumazenil released ([2]; sample B2 (0.125 g of 3% solution in NMP), 4 h): 99.3%
% flumazenil released ([2]; sample B2 (0.125 g of 3% solution in NMP), 5 h): 100.3%
% flumazenil released ([2]; sample B2 (0.125 g of 3% solution in NMP), 6 h): 100.6%
precipitation in bags during the dialysis ([2]; sample B (0.125 g of 3% solution in NMP), rank A < B < C): precipitation was observed
% flumazenil released ([2]; sample C1 (0.083 g of 4.5% solution in NMP), 1 h): 56.1%
% flumazenil released ([2]; sample C1 (0.083 g of 4.5% solution in NMP), 2 h): 79.3%
% flumazenil released ([2]; sample C1 (0.083 g of 4.5% solution in NMP), 3 h): 92.3%
% flumazenil released ([2]; sample C1 (0.083 g of 4.5% solution in NMP), 4 h): 98.1%
% flumazenil released ([2]; sample C1 (0.083 g of 4.5% solution in NMP), 5 h): 100.1%
